Measured values as given in article PMC7248975, “Sigma-1 Receptor Positron Emission Tomography: A New Molecular Imaging Approach Using (S)-(−)-[^18F]Fluspidine in Glioblastoma” (Molecules, 2020).

What was measured:
sigma-1 receptor (sig1R) [1] = molecular target: T1, sigma-1 receptor (sig1R) (Homo sapiens, UniProt Q99720); assay: radioligand binding and displacement of (+)-[3H]pentazocine in U87-MG cells; autoradiography of tumour
T1 construct: gene SIGMAR1; U87-MG cells

sigma-1 receptor (sig1R) [2] = molecular target: T2, sigma-1 receptor (sig1R) (Mus musculus, UniProt O55242); assay: homologous radioligand displacement by autoradiography; PET in sig1R-knockout vs control mice
T2 construct: gene Sigmar1; mouse brain cryosections, contralateral striatum
T2 sequence (O55242 whole entry): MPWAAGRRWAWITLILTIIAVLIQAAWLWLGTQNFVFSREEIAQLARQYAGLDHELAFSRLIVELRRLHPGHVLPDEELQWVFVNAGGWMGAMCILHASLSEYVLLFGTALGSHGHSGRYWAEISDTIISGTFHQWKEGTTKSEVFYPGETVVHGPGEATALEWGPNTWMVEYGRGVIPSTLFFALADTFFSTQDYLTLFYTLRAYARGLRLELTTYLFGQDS

T1 sequence (Q99720 whole entry): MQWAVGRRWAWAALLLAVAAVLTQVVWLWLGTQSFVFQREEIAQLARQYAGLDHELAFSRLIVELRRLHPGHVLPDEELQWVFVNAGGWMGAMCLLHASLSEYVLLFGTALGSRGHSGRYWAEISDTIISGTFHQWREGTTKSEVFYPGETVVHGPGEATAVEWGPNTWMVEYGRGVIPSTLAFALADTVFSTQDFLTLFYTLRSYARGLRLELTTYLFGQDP

`FCC[C@@H]1OC2(CCN(Cc3ccccc3)CC2)c2ccccc21` [(S)-(−)-[^18F]fluspidine] was tested, and the Kd (sigma-1 receptor (sig1R) [1]) was 16.7 nM and the Kd (sigma-1 receptor (sig1R) [2]) was 17 ± 4.8 nM.
